The values below are quoted from earlier work in PubChem BioAssay AID1259409 (Chemical Carcinogenesis Research Information System (CCRIS), 2018).

The data set deals with rodent chemically induced tumor inhibition, incidence and multiplicity. The data set is described as follows: CCRIS tumor inhibitor studies.

`COc1cc(/C=C/C(=O)CC(=O)/C=C/c2ccc(O)c(OC)c2)ccc1O`: the “tumour outcome (control, treated, inhibition, significance)” value runs as follows: (Carcinogen: BENZO[A]PYRENE, 50-32-8, Dose [Inhibitor]: 0, 10 UMOL IN ACETONE APPLIED 120, 60 AND 5 MIN PRIOR TO CARCINOGEN DOSE (STUDY DURATION: 24 WK), Route [Inhibitor]: DERMAL, Species: MOUSE, Strain/Sex: CD-1/FEMALE, Target Tissue: Type of Lesion: SKIN: TUMORS, Dose [Carcinogen]: 200 NMOL ONCE, Promoter: 12-O-TETRADECANOYLPHORBOL-13-ACETATE, 16561-29-8) 96%, 77%, 20%, not calculated; (Carcinogen: METHYL(ACETOXYMETHYL)NITROSAMINE, 56856-83-8, Dose [Inhibitor]: 0, 5% IN DIET FOR DURATION OF STUDY BEGINNING 2 WK PRIOR TO CARCINOGEN TREATMENT (STUDY DURATION: 13 MO), Route [Inhibitor]: ORAL, Species: HAMSTER, Strain/Sex: SYRIAN/FEMALE, Target Tissue: Type of Lesion: ORAL: CAVITY, Dose [Carcinogen]: 2 MG/KG BW APPLIED TO RIGHT CHEEK POUCH 2/MO FOR 6 MO, Promoter: NONE USED) 14/15 (93%), 3/16 (19%), 80%, p<0.001; (Carcinogen: N-ETHYL-N'-NITRO-N-NITROSOGUANDINDE, 4245-77-6, Dose [Inhibitor]: 0, 1% COMMERCIAL GRADE CURCUMIN IN DIET FOR 16 WK BEGINNING 1 WK POST CARCINOGEN TREATMENT (STUDY DURATION: 20 WK), Route [Inhibitor]: ORAL, Species: MOUSE, Strain/Sex: C57BL/MALE, Target Tissue: Type of Lesion: DUODENUM: ADENOMA, Dose [Carcinogen]: 120 MG/L IN DRINKING WATER FOR 4 WK, Promoter: NONE USED) 45%, 28%, 38%, not significant; (Carcinogen: N-ETHYL-N'-NITRO-N-NITROSOGUANIDINE, 4245-77-6, Dose [Inhibitor]: 0, 0.5% COMMERCIAL GRADE CURCUMIN IN DIET FOR 16 WK BEGINNING 1 WK POST CARCINOGEN TREATMENT (STUDY DURATION: 20 WK), Route [Inhibitor]: ORAL, Species: MOUSE, Strain/Sex: C57BL/MALE, Target Tissue: Type of Lesion: DUODENUM: ADENOCARCINOMA, Dose [Carcinogen]: 120 MG/L IN DRINKING WATER FOR 4 WK, Promoter: NONE USED) 6%, 4%, 33%, not significant; (Carcinogen: N-ETHYL-N'-NITRO-N-NITROSOGUANIDINE, 4245-77-6, Dose [Inhibitor]: 0, 0.5% COMMERCIAL GRADE CURCUMIN IN DIET FOR 16 WK BEGINNING 1 WK POST CARCINOGEN TREATMENT (STUDY DURATION: 20 WK), Route [Inhibitor]: ORAL, Species: MOUSE, Strain/Sex: C57BL/MALE, Target Tissue: Type of Lesion: DUODENUM: ADENOMA, Dose [Carcinogen]: 120 MG/L IN DRINKING WATER FOR 4 WK, Promoter: NONE USED) 45%, 20%, 56%, not significant; (Carcinogen: N-ETHYL-N'-NITRO-N-NITROSOGUANIDINE, 4245-77-6, Dose [Inhibitor]: 0, 1% COMMERCIAL GRADE CURCUMIN IN DIET FOR 16 WK BEGINNING 1 WK POST CARCINOGEN TREATMENT (STUDY DURATION: 20 WK), Route [Inhibitor]: ORAL, Species: MOUSE, Strain/Sex: C57BL/MALE, Target Tissue: Type of Lesion: DUODENUM: ADENOCARCINOMA, Dose [Carcinogen]: 120 MG/L IN DRINKING WATER FOR 4 WK, Promoter: NONE USED) 6%, 4%, 33%, not significant. Also, the “tumour outcome (control, treated, inhibition, significance)” value reads like this: (Carcinogen: N-ETHYL-N'-NITRO-N-NITROSOGUANIDINE, 4245-77-6, Dose [Inhibitor]: 0, 2% COMMERCIAL GRADE CURCUMIN IN DIET FOR 16 WK BEGINNING 1 WK POST CARCINOGEN TREATMENT (STUDY DURATION: 20 WK), Route [Inhibitor]: ORAL, Species: MOUSE, Strain/Sex: C57BL/MALE, Target Tissue: Type of Lesion: DUODENUM: ADENOCARCINOMA, Dose [Carcinogen]: 120 MG/L IN DRINKING WATER FOR 4 WK, Promoter: NONE USED) 6%, 5%, 17%, not significant; (Carcinogen: N-ETHYL-N'-NITRO-N-NITROSOGUANIDINE, 4245-77-6, Dose [Inhibitor]: 0, 2% COMMERCIAL GRADE CURCUMIN IN DIET FOR 16 WK BEGINNING 1 WK POST CARCINOGEN TREATMENT (STUDY DURATION: 20 WK), Route [Inhibitor]: ORAL, Species: MOUSE, Strain/Sex: C57BL/MALE, Target Tissue: Type of Lesion: DUODENUM: ADENOMA, Dose [Carcinogen]: 120 MG/L IN DRINKING WATER FOR 4 WK, Promoter: NONE USED) 45%, 27%, 40%, not significant; (Carcinogen: N-METHYL-N'-NITRO-N-NITROSOGUANIDINE, 70-25-7, Route [Inhibitor]: 0, 0.05% IN DIET FOR 55 WK BEGINNING IMMEDIATELY POST-CARCINOGEN TREATMENT, THEN SWITCHED TO BASAL DIET FOR 4 WK (STUDY, Species: RAT, Strain/Sex: WISTAR/MALE, Target Tissue: Type of Lesion: GLANDULAR STOMACH: ADENOCARCINOMA, Dose [Carcinogen]: 100 PPM IN DRINKING WATER FOR 8 WK, Promoter: SODIUM CHLORIDE, 7647-14-5) 1/29 (3%), 2/29 (7%), -133%, not significant; (Carcinogen: N-METHYL-N'-NITRO-N-NITROSOGUANIDINE, 70-25-7, Route [Inhibitor]: 0, 0.2% IN DIET FOR 55 WK BEGINNING IMMEDIATELY POST-CARCINOGEN TREATMENT, THEN SWITCHED TO BASAL DIET FOR 4 WK (STUDY D, Species: RAT, Strain/Sex: WISTAR/MALE, Target Tissue: Type of Lesion: GLANDULAR STOMACH: ADENOCARCINOMA, Dose [Carcinogen]: 100 PPM IN DRINKING WATER FOR 8 WK, Promoter: SODIUM CHLORIDE, 7647-14-5) 1/29 (3%), 2/30 (7%), -133%, not significant; (Carcinogen: NONE USED, Dose [Inhibitor]: 0, 2% IN DIET FROM 12 MO OF AGE (STUDY DURATION: 15 MO), Route [Inhibitor]: ORAL, Species: MOUSE, Strain/Sex: C3H/FEMALE, Target Tissue: Type of Lesion: MAMMARY GLAND: TUMOR, Promoter: NONE USED) 12/20 (60%), 8/18 (44%), 27%, not calculated; (Carcinogen: NONE USED, Dose [Inhibitor]: 0, 5% IN DIET FROM 6 MO OF AGE (STUDY DURATION: 15 MO), Route [Inhibitor]: ORAL, Species: MOUSE, Strain/Sex: C3H/FEMALE, Target Tissue: Type of Lesion: MAMMARY GLAND: TUMOR, Promoter: NONE USED) 12/20 (60%), 0/15 (0%), 100%, not calculated. Moreover, the “tumour outcome (control, treated, inhibition, significance)” value is 12/20 (60%), 7/21 (33%), 45%, not calculated (Carcinogen: NONE USED, Dose [Inhibitor]: 0, 5% IN DIET FROM 8 MO OF AGE (STUDY DURATION: 15 MO), Route [Inhibitor]: ORAL, Species: MOUSE, Strain/Sex: C3H/FEMALE, Target Tissue: Type of Lesion: MAMMARY GLAND: TUMOR, Promoter: NONE USED) and 12/20 (60%), 5/17 (29%), 52%, not calculated (Carcinogen: NONE USED, Dose [Inhibitor]: O, 5% IN DIET FROM 12 MO OF AGE (STUDY DURATION: 15 MO), Route [Inhibitor]: ORAL, Species: MOUSE, Strain/Sex: C3H/FEMALE, Target Tissue: Type of Lesion: MAMMARY GLAND: TUMOR, Promoter: NONE USED).
